Counter-ions that a name gives are not always drawn.

For data set [1], the system named is cpA neurons. The data set is described as follows: extracellular single-sensillum electrophysiology: activation of cpA neuronal activity. The conditions noted are these: for Class: Table 6, single compounds, increase over baseline cpA neuronal activity; for Comp B Class / Comp A Class: Table 9; for Comp B Class: component B tested individually; for Class B (activator class of the individual component): Table 15, single component alone, Mod Actv; for Comp A Class: component A tested individually.

For data set [2], the system named is larvae. The data set is described as follows: larvicidal activity assay. It is filed as in vivo. The conditions noted are these: 24 hour exposure, dead larvae / total larvae; for % Lethality at 100 ppm / pest or weed control at 100 ppm: 100 ppm compound; for % Lethality with 0.25% compound conc. / pest or weed control at 0.25 %: 0.25% compound; for pest or weed control at 0.25 %: read-out: % Lethality with 0.25% compound conc.; for pest or weed control at 100 ppm: read-out: % Lethality at 100 ppm. Here is the method:
A 6-well plate (Corning Life Sciences, Tewksbury, Mass.) is used to test a compound's larvicidal activity. […] After a 24 hour exposure, the number of dead larvae are counted and recorded.
The results are presented in Table 17 as % lethality (the number of dead larvae divided by the total number of larvae).

For data set [3], the system named is female mosquitoes. To be noted: single compound, female mosquitoes, two hours; for % mortality with 0.2 mg/ml: 0.2 mg/ml on filter paper; for % mortality with 2 mg/ml: 2 mg/ml on filter paper.
Data set [4] relates to bed bugs (Cimex lectularius). The experiment in a line: bed bug repellency assay. To be noted: compound or combination on filter paper harborage, ten bed bugs. It is filed as in vivo. The method, then:
Compounds and combinations of compounds of the present invention were assayed for their ability to repel bed bugs (Cimex lectularius) using a bed bug repellency assay. This assay takes advantage of the bed bug's natural tendency to seek harborage. Two petri dishes were obtained and the inner areas of each were sanded down (leaving the perimeter smooth.) Talc was applied on the perimeter and on the inside walls of the petri dishes with a small paint brush to prevent bed bugs from escaping. A cut off top portion of a solo bathroom cup was placed upside down in the center of one petri dish. A large plastic secondary container was gathered and a paper towel was laid down inside the bottom. The petri dish was then placed inside and ten bed bugs were placed inside the cut off portion of the solo cup. Next, two pieces of filter paper were cut down the middle to yield 4 equally sized halves. 3 pieces were placed inside a glass dish ([…]) and the remaining piece was placed in a separate dish. All 4 pieces were folded down the middle to create a “tent” or “harborage” when laid such that the folded crease faced up. 100 microliters of isopropyl alcohol was pipetted into 3 pieces of filter paper (all housed in the first glass dish.) In a separate 4 ml vial, 90 microliters of isopropyl alcohol was combined and vortexed with 10 microliters of the compound or compound combination being tested. 100 microliters of this solution [comprising a total of 100 mg of compound(s)] was pipetted onto the filter paper in the separate dish. All filter papers were then allowed to dry. Once dry, experiments were conducted first with two filter paper halves comprising only the isopropyl alcohol (control experiment) and then with the remaining filter paper halves [one with only isopropyl alcohol and one comprising the test compound(s).] Filter paper halves were placed on opposing sides of experimental petri dishes and bed bugs were allowed to move freely within the dishes for 5 minutes. Movement of bed bugs beneath each filter paper tent was recorded. […] In the Table, “Rep” refers to repellency and “Cmpd” refers to compound.

The subject of data set [5] is cpA neurons. The data set is described as follows: extracellular single-sensillum electrophysiology: inhibition of CO2-responsive (cpA) neuronal activity. To be noted: for Class: Table 10, single compounds, percent reduction in cpA activity compared to baseline; for Class (inhibitor class of the individual component): Inh = inhibitor.
The test system of data set [6] is cpB and cpC neurons. The experiment in a line: extracellular single-sensillum electrophysiology: beta activators. The format is in vivo, Aedes aegypti. The conditions noted are these: for Class (beta activator, individual component) / Class A (beta activator, individual component): Beta Actv; for beta activator (stimulates cpB and cpC neuronal activity): single compound; for Class A (beta activator, individual component): Table 15, single component alone. The source says: Three types of CO2-responsive neurons reside in the maxillary palp of mosquitoes. These include cpA, cpB and cpC neurons. […] These neurons produce spikes with much lower amplitude than those produced by cpA neurons. Although the activity from cpB and cpC neurons cannot easily be distinguished from one another, their collective activity can be distinguished from cpA neurons due to their characteristic spikes. This is useful in the identification of compounds and compositions that only activate or inhibit cpB and cpC neurons or compounds and compositions that activate or inhibit both.
Carbon dioxide receptor neurons are housed within the basiconic sensilla of the mosquito maxillary palp. While activity from cpA neurons produces the largest amplitude spike, cpB and cpC neurons present in this region are also responsive to skin odors. Activity from these neurons can also be detected through the electrophysiological methods described in Example 1.
Although the activity from cpB and cpC neurons cannot easily be distinguished from one another, their collective activity can be distinguished from cpA neurons due to their production of spikes with much lower amplitude than those produced by cpA neurons.

In data set [7] the test system is female mosquitoes. The experiment in a line: whole plant or invertebrate. To be noted: 2 h; for mortality at 200 µg/mL: read-out: % mortality with 0.2 mg/ml; for mortality at 2000 µg/mL: read-out: % mortality with 2 mg/ml.
Setting [8] is: Table 13, single component alone.
[9] abbreviates: Table 16, single component alone.

In the case of `N#C/C=C/c1ccccc1` [OLI0020, cinnamyl nitrile], in data set [1], the Class result was “Moderate Activator (Moderate activators yield an increase in neuronal activity that is between 40 and 60 spk/sec over baseline neuronal activity)”; the “Comp B Class” value was “Mod”; the “Class B (activator class of the individual component)” value (“Class B” below) was “Mod”. Besides, in data set [2], the “% Lethality with 0.25% compound conc.” value is on record as 100% lethal and the “% Lethality at 100 ppm” value turned out to be 100% lethal. In data set [3], the “% mortality with 0.2 mg/ml” value is 0% and the “% mortality with 2 mg/ml” value is on record as 100%. In addition, the “% Rep (bed bug repellency)” value in data set [4] was 56%.

Consider `CCCCC(=O)OCc1ccco1` [OLI0074, furfurylpentanoate], for which the Class entry in data set [5] is “Moderate Inhibitor (moderate inhibitors (reducing activity by 40-60%))”. For the same molecule, the “Class (inhibitor class of the individual component)” value in data set [5] (setting [8]) is “Mod”. In addition, in data set [5] (setting [9]), the “Class (inhibitor class of the individual component)” value is on record as “Mod”. Also, in data set [2], the pest or weed control at 0.25 % stood at 100% and the pest or weed control at 100 ppm stood at 0%. The “Class (beta activator, individual component)” value in data set [6] (setting [9]) was “Beta”. Also, in data set [6], the “beta activator (stimulates cpB and cpC neuronal activity)” value is on record as “beta activator”. In addition, in data set [7], the mortality at 200 µg/mL amounted to 0% and the mortality at 2000 µg/mL came out at 0%. Moreover, the “% Rep (bed bug repellency)” value in data set [4] came to 100%.

Turning to `CC(C)CCOC=O` [OLI0098, isoamyl formate], in data set [6], the “Class A (beta activator, individual component)” value was “Beta”; the “beta activator (stimulates cpB and cpC neuronal activity)” value was “beta activators”.

Take `CC/C=C\CCOC=O` [OLI0096, cis-3-hexenyl formate]: in data set [2], the pest or weed control at 0.25 % is 30% and the pest or weed control at 100 ppm stood at 0%. In addition, in data set [6], the “Class A (beta activator, individual component)” value is recorded as “Beta”; the “beta activator (stimulates cpB and cpC neuronal activity)” value is on record as “beta activators”. In addition, in data set [7], the mortality at 200 µg/mL amounted to 0% and the mortality at 2000 µg/mL was 0%. In addition, in data set [4], the “% Rep (bed bug repellency)” value worked out at 6%.

Turning to `CC1=C2CCC(C)CC2OC1=O` (stereo not shown) [OLI0111, Menthalactone], in data set [2], the “% Lethality with 0.25% compound conc.” value was 100% lethal and the “% Lethality at 100 ppm” value came to 33% lethal. For the same molecule, in data set [3], the “% mortality with 0.2 mg/ml” value was determined as 0% and the “% mortality with 2 mg/ml” value turned out to be 100%. Moreover, in data set [4], the “% Rep (bed bug repellency)” value is 13%.

Take `COC(/C=C/c1ccccc1)OC` [OLI0106, cinnamic aldehyde dimethyl acetal]: in data set [2], the “% Lethality with 0.25% compound conc.” value was found to be 100% lethal and the “% Lethality at 100 ppm” value amounted to 10% lethal. In data set [3], the “% mortality with 0.2 mg/ml” value amounted to 0% and the “% mortality with 2 mg/ml” value is 100%. The “% Rep (bed bug repellency)” value in data set [4] is reported as 90%.

Consider `CCCC1CCC(=O)O1` (stereo not shown) [OLI0024, gamma-heptalactone], for which, in data set [1], the Class result is “Moderate Activator (Moderate activators yield an increase in neuronal activity that is between 40 and 60 spk/sec over baseline neuronal activity)”; the “Comp A Class” value was “Mod”; the “Comp B Class” value is on record as “Mod”; the “Class B” value is “Mod”. Besides, in data set [2], the “% Lethality with 0.25% compound conc.” value is on record as 100% lethal and the “% Lethality at 100 ppm” value was 0% lethal. In data set [3], the “% mortality with 0.2 mg/ml” value is 0% and the “% mortality with 2 mg/ml” value is 0%. Moreover, in data set [4], the “% Rep (bed bug repellency)” value is 71%.

As to `C/C=C(\C)C=O` [OLI0013, trans-2-methyl-2-butenal], the Class entry in data set [1] was “Strong Activator (strong activators yield an increase in activity that is >60 spk/sec over baseline neuronal activity)”. In data set [2], the “% Lethality with 0.25% compound conc.” value is given as 72% lethal and the “% Lethality at 100 ppm” value came to 0% lethal. In data set [3], the “% mortality with 0.2 mg/ml” value is 0% and the “% mortality with 2 mg/ml” value is recorded as 0%.

For the molecule `O=CCCc1ccccc1` [OLI0029, phenylpropylaldehyde], in data set [1], the Class entry is “Moderate Activator (Moderate activators yield an increase in neuronal activity that is between 40 and 60 spk/sec over baseline neuronal activity)”; the “Comp A Class” value is given as “Mod”; the “Comp B Class” value is “Mod”; the “Class B” value is on record as “Mod”. Besides, in data set [2], the “% Lethality with 0.25% compound conc.” value is listed as 100% lethal and the “% Lethality at 100 ppm” value is reported as 0% lethal. In data set [3], the “% mortality with 0.2 mg/ml” value came out at 0% and the “% mortality with 2 mg/ml” value was determined as 15%. For the same molecule, in data set [4], the “% Rep (bed bug repellency)” value is listed as 100%.

For `CCCCCC(=O)CC` [OLI0075, octanone-3], the Class entry in data set [5] is given as “Moderate Inhibitor (moderate inhibitors (reducing activity by 40-60%))”. The “Class (inhibitor class of the individual component)” value in data set [5] (setting [8]) is “Mod”. Also, in data set [2], the “% Lethality with 0.25% compound conc.” value turned out to be 100% lethal and the “% Lethality at 100 ppm” value was found to be 50% lethal. In data set [3], the “% mortality with 0.2 mg/ml” value is listed as 0% and the “% mortality with 2 mg/ml” value was 0%.

As for `CC/C=C/CC(=O)OC` [OLI0100, methyl (E)-hex-3-enoate], the “Comp B Class” value in data set [1] is “Beta”. Moreover, in data set [2], the pest or weed control at 0.25 % stood at 100% and the pest or weed control at 100 ppm worked out at 0%. Besides, in data set [6] (setting [8]), the “Class (beta activator, individual component)” value is recorded as “Beta”. Further, in data set [6], the “Class A (beta activator, individual component)” value is “Beta”; the “beta activator (stimulates cpB and cpC neuronal activity)” value is “beta activators”. Besides, the “Class (beta activator, individual component)” value in data set [6] (setting [9]) is given as “Beta”. In data set [7], the mortality at 200 µg/mL was 0% and the mortality at 2000 µg/mL was 0%. Further, the “% Rep (bed bug repellency)” value in data set [4] is listed as 17%.

As to 2-ethyl-5(6)-methylpyrazine [OLI0032], in data set [1], the Class entry is “Mild Activator (mild activators yield an increase in neuronal activity that is between 20 and 40 spk/sec over baseline neuronal activity)”. For the same molecule, in data set [3], the “% mortality with 0.2 mg/ml” value is given as 0% and the “% mortality with 2 mg/ml” value was found to be 0%.

Regarding `CC(=O)/C=C/C=C(C)C` [OLI0059], the Class entry in data set [1] was “Mild Activator (mild activators yield an increase in neuronal activity that is between 20 and 40 spk/sec over baseline neuronal activity)”. In addition, in data set [2], the “% Lethality with 0.25% compound conc.” value is on record as 100% lethal and the “% Lethality at 100 ppm” value was determined as 58% lethal. For the same molecule, in data set [3], the “% mortality with 0.2 mg/ml” value was found to be 0% and the “% mortality with 2 mg/ml” value was found to be 0%. Also, in data set [4], the “% Rep (bed bug repellency)” value was found to be 87%.

`CCCCCC(C)=O` [OLI0092, methylamylketone]: the “Comp B Class” value in data set [1] is on record as “Mild Inh (mild inhibitors (reducing activity by 20-40%))”. For the same molecule, the Class result in data set [5] was “Mild Inhibitor (mild inhibitors (reducing activity by 20-40%))”. Moreover, in data set [2], the pest or weed control at 0.25 % was 73% and the pest or weed control at 100 ppm amounted to 32%. In data set [7], the mortality at 200 µg/mL was found to be 0% and the mortality at 2000 µg/mL amounted to 0%. Also, the “% Rep (bed bug repellency)” value in data set [4] is 8%.

Regarding furfurylpentenoate [OLI0088], the Class entry in data set [5] is recorded as “Mild Inhibitor (mild inhibitors (reducing activity by 20-40%))”. In data set [5] (setting [9]), the “Class (inhibitor class of the individual component)” value was “Mod”. Moreover, the “Class (beta activator, individual component)” value in data set [6] (setting [9]) is “Beta”.

On to methoxy cinnamic aldehyde [OLI0112], for which, in data set [2], the “% Lethality with 0.25% compound conc.” value is 100% lethal and the “% Lethality at 100 ppm” value was 0% lethal. For the same molecule, in data set [3], the “% mortality with 0.2 mg/ml” value is listed as 0% and the “% mortality with 2 mg/ml” value came to 100%. Besides, the “% Rep (bed bug repellency)” value in data set [4] came to 23%.

These data come from US20150216182A1, “COMPOSITIONS AND METHODS OF THE ATTRACTION AND REPULSION OF INSECTS” (Olfactor Laboratories, Inc., priority 2012, published 2015).
